Measured values from patent US11919939B2, “Beta-2-glycoprotein 1 derived peptide and use thereof for treating antiphospholipid syndrome” (Université de Genéve, priority 2017, dated 2024).
Entries after “also recorded” stand apart in the source; their conditions may differ. Values belong to the molecule of their own block, whether it stands above or below them.

Tests used:
[1] = test system: aPLA (patient-derived anti-β2GP1 antibodies); assay: ELISA epitope mapping assay (aPLA binding to coated wells); design: species or system human; conditions: wells coated with 10 μg/ml, aPLA from APS patients
Description: IgG fractions were isolated from patients plasma with Protein-G CL-4B Sepharose (GE Healthcare) as previously described.^16 To assay for endotoxin and lipopeptide contamination of the IgG fractions, we depleted IgG from the aPLA and IgG-ctl (control) fractions by one step of affinity adsorption to Protein G-Sepharose and tested the remaining supernatant for its capacity for monocyte activation, as previously described^17. […] Each experiment was performed with at least 2 different preparations of IgG.
MaxiSorp™ 96 well plates (Nunc) were coated with 10 μg/ml recombinant domains or peptides of β2GP1 prior to incubation with aPLA or control IgG. Secondary anti-human antibodies conjugated to IR800CW (Rockland) were used. Protein- or peptide-bound antibodies were detected and quantified by the Odyssey system (Li-Cor).

[2] = test system: human monocytes activated with aPLA; assay: TNF production in human monocytes activated with aPLA; assay type: cell-based; conditions: domains or peptides at 10 μg/ml
Description: Monocytes were isolated from blood buffy coats of healthy volunteers as previously described.^14, 15 Monocyte purity routinely consisted of >90% CD14^+ cells, <1% CD3^+ cells, and <1% CD19^+ cells as assessed by flow cytometry. Cells were cultured in RPMI containing 10% Fetal Bovine Serum (FBS; Gibco BRL-Life Technologies). Each experiment was performed with at least three different preparations of monocytes.
The cells were treated with recombinant domains or peptides of β2GP1 at 10 μg/ml prior to incubation with aPLA or control IgG. Supernatants were collected for TNF quantification by ELISA (R&D System).

[3] = test system: CD4+ T cells from APS patients; assay: T cell proliferation assay (CFSE dilution) on PBMC of APS patients; assay type: cell-based, human; design: dose or concentration left out as unconfirmed; conditions: antigens for 10 days, flow cytometry
Description: Peripheral blood mononuclear cells (PBMC) were isolated by density gradient centrifugation over Lymphoprep™ (Axis-Shield PoC) according to the manufacturer's instructions. T cell proliferation was evaluated by 5,6-carboxylfluorescein diacetate succinimidyl ester (CFSE) dilution assays (eBioscience). PBMC were stained with 0.1 μM CFSE (eBioscience), according to the manufacturer's instructions. Cells were cultured in the presence of antigens ([…]) for 10 days. T cell proliferation was assessed by flow cytometry evaluation of CFSE dilution. Proliferation was expressed as the cell division index (defined as the number of CFSE^low T cells cultured with antigen/number of CFSE^low T cells without antigen). In all cases, the culture medium consisted of X-VIVO 15 (Lonza, Walkersville, MD) supplemented with penicillin (100 U/ml) and streptomycin (0.1 mg/ml).
Single-cell suspensions stained with CFSE (eBioscience) were incubated with anti-CD32 (Biolegend) to prevent nonspecific antibody binding, then stained with antibodies against AF488-CD3, AF647-CD4, (BD Bioscience) major histocompatibility complex (MHC) class II tetramer (Benaroya Research Institute). Staining was assessed with ACCURI C6 flow cytometer (BD Biosciences).

Molecule: C14A: alanine scanning mutant of p1 (MISPVLILFSSFLAHVAIAG; listed as Homo sapiens)
aPLA binding to peptide- or domain-coated well [1]: significantly decreased the binding of aPLA

aPLA binding to peptide- or domain-coated well [1]: involved in the binding of aPLA
Molecule: C66A: alanine scanning mutant of p6 (CKPGYVSRGGMRKFIAPLTG; listed as Homo sapiens)

Molecule: F9A: alanine scanning mutant of p1 (MISPVLILASSFLCHVAIAG; listed as Homo sapiens)
aPLA binding to peptide- or domain-coated well [1]: significantly decreased the binding of aPLA

Molecule: F12A: alanine scanning mutant of p1 (MISPVLILFSSALCHVAIAG; listed as Homo sapiens)
aPLA binding to peptide- or domain-coated well [1]: significantly decreased the binding of aPLA

aPLA binding to peptide- or domain-coated well [1]: involved in the binding of aPLA
Molecule: F64A: alanine scanning mutant of p6 (CKPGYVSRGGMRKAICPLTG; listed as Homo sapiens)

aPLA binding to peptide- or domain-coated well [1]: involved in the binding of aPLA
Molecule: G59A: alanine scanning mutant of p6 (CKPGYVSRAGMRKFICPLTG; listed as Homo sapiens)

aPLA binding to peptide- or domain-coated well [1]: involved in the binding of aPLA
Molecule: G60A: alanine scanning mutant of p6 (CKPGYVSRGAMRKFICPLTG; listed as Homo sapiens)

Molecule: I7A: alanine scanning mutant of p1 (MISPVLALFSSFLCHVAIAG; listed as Homo sapiens)
aPLA binding to peptide- or domain-coated well [1]: significantly decreased the binding of aPLA

Molecule: L8A: alanine scanning mutant of p1 (MISPVLIAFSSFLCHVAIAG; listed as Homo sapiens)
aPLA binding to peptide- or domain-coated well [1]: significantly decreased the binding of aPLA

aPLA binding to peptide- or domain-coated well [1]: involved in the binding of aPLA
Molecule: M61A: alanine scanning mutant of p6 (CKPGYVSRGGARKFICPLTG; listed as Homo sapiens)

Molecule: MISPVLILFSSFLCHVAIAG [p1]
Inhibition of TNF production induced by aPLA [2]: diminished the production of TNF induced by aPLA
CD4+ T cell proliferative response (CD4+CFSElow) [3]: significantly increased; also recorded: induced the proliferation of CD4^+ T cells
CD4+ T cell proliferative response (CD4+CFSElow) ([3]; listed as peptide 1): carries antigenic determinant for CD4^+ T cell proliferation
aPLA binding to peptide- or domain-coated well [1]: able to bind p1 (SEQ ID NO:32) as potently as p6; also recorded: interact with aPLA

aPLA binding to peptide- or domain-coated well [1]: involved in the binding of aPLA
Molecule: R58A: alanine scanning mutant of p6 (CKPGYVSAGGMRKFICPLTG; listed as Homo sapiens)

aPLA binding to peptide- or domain-coated well [1]: involved in the binding of aPLA
Molecule: R62A: alanine scanning mutant of p6 (CKPGYVSRGGMAKFICPLTG; listed as Homo sapiens)

Molecule: S11A: alanine scanning mutant of p1 (MISPVLILFSAFLCHVAIAG; listed as Homo sapiens)
aPLA binding to peptide- or domain-coated well [1]: significantly decreased the binding of aPLA

Molecule: p3: 20-mer overlapping peptide of β2GP1 domain I-II, SEQ ID NO:39 (RTCPKPDDLPFSTVVPLKTF; listed as Homo sapiens)
aPLA binding to peptide- or domain-coated well [1]: bound to p3 with a similar efficiency compared to p1

Molecule: p6: 20-mer peptide of β2GP1 domain I-II containing epitope R39-R43, SEQ ID NO:33 (CKPGYVSRGGMRKFICPLTG; listed as Homo sapiens)
Inhibition of TNF production induced by aPLA [2]: diminished the production of TNF induced by aPLA
aPLA binding to peptide- or domain-coated well [1]: interacted similarly with both peptides; also recorded: interact with aPLA

Molecule: p10: 20-mer overlapping peptide of β2GP1 domain I-II, SEQ ID NO:44 (ENGAVRYTTFEYPNTISFSC; listed as Homo sapiens)
Inhibition of TNF production induced by aPLA [2]: had no effect

Molecule: p11: 20-mer overlapping peptide of β2GP1 domain I-II, SEQ ID NO:45 (EYPNTISFSCNTGFYLNGAD; listed as Homo sapiens)
Inhibition of TNF production induced by aPLA [2]: had no effect

aPLA binding to peptide- or domain-coated well [1]: binding of aPLA
B1: domain I-II: recombinant fusion protein of β2GP1 sushi domain I and II, SEQ ID NO:37 (protein, listed as Homo sapiens)
chain: MISPVLILFSSFLCHVAIAGRTCPKPDDLPFSTVVPLKTFYEPGEEITYSCKPGYVSRGGMRKFICPLTGLWPINTLKCTPRVCPFAGILENGAVRYTTFEYPNTISFSCNTGFYLNGADSAKCTEEGKWSPELPVCA
Inhibition of TNF production induced by aPLA [2]: significantly decreased the production of TNF induced by aPLA
CD4+ T cell proliferative response (CD4+CFSElow) [3]: induce proliferation of T cells
CD4+ T cell proliferative response (CD4+CFSElow) ([3]; listed as β2GP1-domain I-II): proliferative responses were detected

B2: domain V: recombinant fusion protein of β2GP1 domain V (protein)
chain: SCKVPVKKATVVYQGERVKIQEKFKNGMLHGDKVSFFCKNKEKKCSYTEDAQCIDGTIEVPKCFKEHSSLAFWKTDASDVKPC
modifications: left off: small tags and cut ends
Inhibition of TNF production induced by aPLA [2]: significantly decreased the production of TNF induced by aPLA

aPLA binding to peptide- or domain-coated well [1]: binding of aPLA
B3: reduced β2GP1: reduced β2GP1 exposing the cryptic epitope (protein)
chain: GRTCPKPDDLPFSTVVPLKTFYEPGEEITYSCKPGYVSRGGMRKFICPLTGLWPINTLKCTPRVCPFAGILENGAVRYTTFEYPNTISFSCNTGFYLNGADSAKCTEEGKWSPELPVCAPIICPPPSIPTFATLRVYKPSAGNNSLYRDTAVFECLPQHAMFGNDTITCTTHGNWTKLPECREVKCPFPSRPDNGFVNYPAKPTLYYKDKATFGCHDGYSLDGPEEIECTKLGNWSAMPSCKASCKVPVKKATVVYQGERVKIQEKFKNGMLHGDKVSFFCKNKEKKCSYTEDAQCIDGTIEVPKCFKEHSSLAFWKTDASDVKPC
Inhibition of TNF production induced by aPLA [2]: no effect on aPLA activity
CD4+ T cell proliferative response (CD4+CFSElow) [3]: induce proliferation of T cells; also recorded: proliferative responses were detected

aPLA binding to peptide- or domain-coated well [1]: binding of aPLA
B4: β-2-Glycoprotein 1 (protein)
chain: B3 chain
notes: native β2GP1 purified from Human Plasma (Prospecbio)
Inhibition of TNF production induced by aPLA [2]: no effect on aPLA activity
CD4+ T cell proliferative response (CD4+CFSElow) [3]: unable to significantly stimulate T cell proliferation

aPLA binding to peptide- or domain-coated well [1]: efficiently interacted with aPLA
aPLA binding to peptide- or domain-coated well ([1]; listed as domain III): binding of aPLA
B5: domain III-IV: recombinant fusion protein of β2GP1 domains III-IV (protein)
chain: PIICPPPSIPTFATLRVYKPSAGNNSLYRDTAVFECLPQHAMFGNDTITCTTHGNWTKLPECREVKCPFPSRPDNGFVNYPAKPTLYYKDKATFGCHDGYSLDGPEEIECTKLGNWSAMPSCKA
modifications: left off: small tags and cut ends
Inhibition of TNF production induced by aPLA [2]: significantly decreased the production of TNF induced by aPLA
